According to US20070122352A1, “Inhalation Drug Combinations” (GLAXO GROUP LIMITED, priority 2001, published 2007):

System: HPA axis
Assay: 24-hour urinary cortisol excretion as a measure of HPA suppression
Type: in vivo, human
Settings: 24 h post-dose urine, single dose, healthy subjects
From the text: The below examples are used to exemplify the present invention and are in no way meant to narrow the scope of the invention. The examples compare the systemic pharmacokinetic and pharmacodynamic of a MDI made up of two drugs, namely, salmeterol and fluticasone propionate combined in a HFA propellant, namely 134a, with individual salmeterol and fluticasone propionate MDIs in a CFC propellant administered individually and with placebo (HFA 134a propellant alone). Healthy human subjects were given either salmeterol and fluticasone propionate in HFA 134a propellant, salmeterol in P11/P12, fluticasone propionate in P11/P12, or a placebo in HFA 134a propellant, in a randomized, single dose, crossover study. Potential side effects such as increased heart rate and QTc interval were measured. The levels of cortisol in the urine were also measured as a measure of HPA suppression. Twenty healthy human subjects were randomized into one of four treatment groups. […] Cortisol levels were determined from 500 μl of urine by automated immunochemiluminescence on the ASC-180 (Bayer Diagnostics) following preliminary extraction of the urine with dichloromethane. […] For untransformed parameters, the 90% (or 95%) confidence interval for the difference in least squares means was expressed as a ratio of the individual mean.

post-treatment geometric mean urinary cortisol excreted: 18.5 µg
SMILES: CCC(=O)O[C@]1(C(=O)SCF)[C@H](C)C[C@H]2[C@@H]3C[C@H](F)C4=CC(=O)C=C[C@]4(C)[C@@]3(F)[C@@H](O)C[C@@]21C [fluticasone propionate, S-(fluoromethyl)6α,9-difluro-11β,17-dihydroxy-16α-methyl-3-oxoandrosta-1,4-diene-17β-carbothioate,17-propionate]
